Literature values as cited in patent US5426034A, “Process for the production and use of a stable 6-phosphogluconolactonase” (Boehringer Mannheim GmbH, priority 1990, dated 1995).

System: 6-phosphogluconolactonase (phosphogluconolactonase) from Zymomonas mobilis
Details: Zymomonas enzyme, literature value (Scopes 1985); substrate specificity

- Km: 20 to 30 µM
Structure (SMILES): O=C1O[C@H](COP(=O)(O)O)[C@@H](O)[C@H](O)[C@H]1O [6-phosphogluconolactone]
